Legend:
[1] = tested on: Human immunodeficiency virus; experiment: Ratio of CC50 required to reduce the viability of mock-infected human CEM cells to EC50 required to inhibit HTLV-III B induced cytopathicity in that cells; assay type: functional, Human immunodeficiency virus 1, CCRF-CEM
[2] = tested on: Human immunodeficiency virus; experiment: Effective concentration required to inhibit HTLV-III B induced cytopathicity in human CEM cells; assay type: functional, organism-based; settings: Human immunodeficiency virus 1, CCRF-CEM
CCRF-CEM = experiment: Concentration required to reduce the viability of mock-infected human CEM cells; assay type: functional

Row | Compound | Selectivity index [1] | EC50 [2] | CC50 (CCRF-CEM)
1 | CCN(CC)C(=S)N/N=C1\C(=O)N(CN2CC(C)OC(C)C2)c2ccccc21 (stereo not given) | <1 | > 13.3 µM | 13.3 µM
2 | CCN(CC)C(=S)N/N=C1\C(=O)N(CN2CCN(c3cc4c(cc3F)c(=O)c(C(=O)O)cn4CC)CC2)c2ccccc21 | 12.02 | 3.12 µM | 37.5 µM
3 | O=C1Nc2ccc(Cl)cc2[C@@](C#CC2CC2)(C(F)(F)F)O1 [EFAVIRENZ] | >256 | 0.78 µM | > 200 µM
4 | CCN(CC)C(=S)N/N=C1\C(=O)N(CN2CCN(Cc3ccccc3)CC2)c2ccccc21 | 4.12 | 3.4 µM | 14 µM
5 | CCN(CC)C(=S)N/N=C1\C(=O)N(CN2CCN(c3ccc(F)cc3)CC2)c2ccccc21 | <1 | > 14.5 µM | 14.5 µM
6 | CCN(CC)C(=S)N/N=C1\C(=O)N(CN2CCN(c3cccc(C(F)(F)F)c3)CC2)c2ccccc21 | 17.14 | 2.62 µM | 44.9 µM
7 | CCN(CC)C(=S)N/N=C1\C(=O)N(CN(Cc2ccccc2)Cc2ccccc2)c2ccccc21 | <1 | > 8.29 µM | 8.29 µM
8 | CCN(CC)C(=S)N/N=C1\C(=O)N(CN2CCN(c3ccc([N+](=O)[O-])cc3)CC2)c2ccccc21 | <1 | > 11.9 µM | 11.9 µM
9 | CCN(CC)C(=S)N/N=C1\C(=O)N(CN(C)C)c2ccccc21 | <1 | > 2.86 µM | 2.86 µM
10 | CCN(CC)C(=S)N/N=C1\C(=O)N(CN2CCN(c3ncccn3)CC2)c2ccccc21 | <1 | > 12.8 µM | 12.8 µM
